Results: patent US20100130604A1, “USE OF ROSMARINIC ACID IN MANUFACTURE OF MEDICAMENTS FOR TREATING OR PREVENTING HEPATIC AND RENAL DISEASES” (SHANGDONG LUYE NATURAL DRUG RESEARCH AND DEVELOPMENT CO., …, priority 2006, published 2010)

Tests used:
Type in all cases: in vivo, Sprague Dawley rats
[1] = tested on: renal interstitial fibrosis in rats; assay: Renal interstitial fibrosis in rats with unilateral urethral obstruction; details: day 10
Experimental: 130 rats were randomly divided into 13 groups, namely, a sham operation group, a model group, benazapril p.o. Group at 10 mg/kg, RA i.v. groups at 2.5 mg/kg, 5 mg/kg, 25 mg/kg, 75 mg/kg, and 150 mg/kg of RA, and RA p.o. groups at 2.5 mg/kg, 5 mg/kg, 25 mg/kg, 150 mg/kg, and 300 mg/kg of RA. The animals were acclimated for a week before they were all anaesthetised with an i.p. dose of 10% chloral hydrate at 3.0mL/kg and placed on the operating table in right lateral position. The rats were shaved and the operating area was disinfected using iodine tincture and 75% ethanol. The left urethra was exposed and isolated after a left lateral incision was made on the abdominal area and skin, muscles and all other layers of the abdominal wall were incised sequentially. In the sham group, the left urethra was only isolated without being ligated or cut off. In all other animals, the left urethra was ligated with No. 4 suture and obstructed followed by closure of the abdominal wall layer by layer. The animals were anaesthetised again with 10% chloral hydrate 10 days later, blood was collected and serum was separated to determine FN levels. The left kidney was removed after thorough rinsing and then fixed in 4% paraformaldehyde buffer. HYP level was determined according to instructions provided with the kit.

[2] = tested on: rats with diabetic nephropathy; assay: Diabetic nephropathy in rats (left nephrectomy + streptozocin); details: p.o. 10 mg/kg; for creatinine: serum
Experimental: After 1 week-long acclimation period, animals were anaesthetised with 10% chloral hydrate (0.35 mL/100 g, i.p.) and nephrectomy was exercised to the left kidney. One week later, a single dose of 1% of streptozocin solution was i.v. injected to all animals at 60 mg/kg. After 72h, blood was collected from eyepit to test blood glucose level with the above-mentioned kit. The model was considered successful when blood glucose level >16.7 mmol/L. When the model is established, 130 rats were randomly divided into 13 groups, with 10 animals in each group, namely, a normal control group, a model group, benzanapril p.o. Group at 10 mg/kg, RA i.v. groups at 2.5 mg/kg, 5 mg/kg, 25 mg/kg, 75 mg/kg, and 150 mg/kg of RA, and RA p.o. groups at 5 mg/kg, 10 mg/kg, 50 mg/kg, 150 mg/kg, and 300 mg/kg of RA. The drugs were administered once every day. Blood was collected from eyepit at week 8 and week 16 to determine serum levels of creatinine and urea nitrogen. Urinary protein excretion within 24 hours was also studied. The animals were sacrificed 24 hours after the last dose and kidney removed for histopathological examination.

CRF rats [3] = assay: CRF induced by 5/6 nephrectomy in rats; details: p.o. 12 mg/kg
CRF rats [4] = assay: CRF induced by 5/6 nephrectomy in rats; details: 8 weeks; p.o. 12 mg/kg
Experimental: 130 rats were randomly divided into 13 groups, with 10 animals in each group, namely, a normal control group, a model group, methylprednisolone p.o. Group at 12 mg/kg, RA i.v. groups at 2.5 mg/kg, 5 mg/kg, 25 mg/kg, 75 mg/kg, and 150 mg/kg of RA, and RA p.o. groups at 5 mg/kg, 10 mg/kg, 50 mg/kg, 150 mg/kg, and 300 mg/kg of RA. Apart from the normal control group, all other rats were induced to CRF by cutting off 5/6 of the kidneys. 2/3 of the left kidney was removed in the first operation, and one week later the right kidney in the second operation. Dosing started one week after the second operation via p.o. or i.p. routes. Blood was collected from eyepit at week 4 and week 8 to determine creatinine and urea nitrogen levels in sera. 5 animals in each group were sacrificed at week 4 and […] were sacrificed at the end of the study. Pathological changes in renal function were observed through HE and PAS staining of histopathological sections.

hepatofibrosis in rats = assay: CCl4-induced hepatofibrosis in chronic hepatitis in rats; details: hepatic; 8 mg/kg, 6 weeks
Experimental: 120 rats were randomly divided into 12 groups, with 10 in each group, namely, a normal control group, a model group, […] Apart from the normal control group, all rats were s.c. injected 0.3 ml of 40% solution of CC14 in oil per 100 g of body weight once every 3 days for 6 weeks. Animals in the normal control group were s.c. injected 0.3 ml/100 g body weight of oil vehicle following the same schedule as the experimental groups. First dose was doubled for all animals. Six weeks later, drugs were continuously administered to animals in each group for 6 weeks. After the administration was completed, all animals were anaesthetised with i.p. injection of 20% ethyl carbamate solution (Beijing Tongxian District Yucai Fine Chemicals). Blood was collected from abdominal aorta. Hepatic lobule tissue was removed, part of which was fixed with 10% neutral foinialin solution and made into wax blocks within 24-48 hours. […] Serum HA, LN, Pc III levels and hepatic HYP level were determined according to the respective kit instructions.

CCOC(=O)[C@H](CCc1ccccc1)N[C@H]1CCc2ccccc2N(CC(=O)O)C1=O [Benazapril, reference compound]
HYP ([1]; left kidney, benazapril p.o. 10 mg/kg): 500 ± 132 µg/g
FN ([1]; serum, p.o. 10 mg/kg): 17.0 ± 3.6 mg/L
24 h urinary protein excretion ([2]; 8 weeks): 19.29 ± 2.11 mg/24 h
Blood glucose ([2]; 8 weeks): 21.11 ± 4.55 mmol/L
Serum urea nitrogen ([2]; 8 weeks): 9.21 ± 1.62 mg/dL
24 h urinary protein excretion ([2]; 16 weeks): 61.76 ± 6.75 mg/24 h
Blood glucose ([2]; 16 weeks): 22.11 ± 4.55 mmol/L
Serum urea nitrogen ([2]; 16 weeks): 18.21 ± 3.25 mg/dL
creatinine ([2]; 8 weeks): 0.57 ± 0.07 mg/dL
creatinine ([2]; 16 weeks): 1.15 ± 0.13 mg/dL

C[C@H]1C[C@@H]2[C@H]([C@@H](O)C[C@@]3(C)[C@H]2CC[C@]3(O)C(=O)CO)[C@@]2(C)C=CC(=O)C=C12 [Methylprednisolone, reference compound]
Serum creatinine (CRF rats [3]; 4 weeks): 1.33 ± 0.13 mg/dL
Serum urea nitrogen (CRF rats [3]; 4 weeks): 15.21 ± 3.25 mg/dL
Serum creatinine (CRF rats [3]; 8 weeks): 1.25 ± 0.17 mg/dL
Serum urea nitrogen (CRF rats [4]): 18.21 ± 4.25 mg/dL

CN(CCOc1ccc(CC2SC(=O)NC2=O)cc1)c1ccccn1 (stereo not drawn) [Rosiglitazone, reference compound]
HYP (hepatofibrosis in rats): 1259 ± 153 µg/L
